Measurements: patent publication US8399676B2, “Piperidine derivatives” (Hoffman-La Roche Inc., priority 2009, dated 2013)
Where a name gives a salt, the structure may show the parent alone.

target: T1, human HSL (Homo sapiens, UniProt Q05469); test: Human Hormone-Sensitive Lipase (HSL) enzyme inhibition assay (colorimetric, DMPT substrate); format: biochemical; conditions: read-out: HSL hum IC50
T1 construct: generate a full length human HSL ORF with a 3′-His6 tag; His6 (C); made in house; host or cells: High 5 insect cells (baculovirus, pFast-BAC)
T1 sequence (Q05469 1-1076): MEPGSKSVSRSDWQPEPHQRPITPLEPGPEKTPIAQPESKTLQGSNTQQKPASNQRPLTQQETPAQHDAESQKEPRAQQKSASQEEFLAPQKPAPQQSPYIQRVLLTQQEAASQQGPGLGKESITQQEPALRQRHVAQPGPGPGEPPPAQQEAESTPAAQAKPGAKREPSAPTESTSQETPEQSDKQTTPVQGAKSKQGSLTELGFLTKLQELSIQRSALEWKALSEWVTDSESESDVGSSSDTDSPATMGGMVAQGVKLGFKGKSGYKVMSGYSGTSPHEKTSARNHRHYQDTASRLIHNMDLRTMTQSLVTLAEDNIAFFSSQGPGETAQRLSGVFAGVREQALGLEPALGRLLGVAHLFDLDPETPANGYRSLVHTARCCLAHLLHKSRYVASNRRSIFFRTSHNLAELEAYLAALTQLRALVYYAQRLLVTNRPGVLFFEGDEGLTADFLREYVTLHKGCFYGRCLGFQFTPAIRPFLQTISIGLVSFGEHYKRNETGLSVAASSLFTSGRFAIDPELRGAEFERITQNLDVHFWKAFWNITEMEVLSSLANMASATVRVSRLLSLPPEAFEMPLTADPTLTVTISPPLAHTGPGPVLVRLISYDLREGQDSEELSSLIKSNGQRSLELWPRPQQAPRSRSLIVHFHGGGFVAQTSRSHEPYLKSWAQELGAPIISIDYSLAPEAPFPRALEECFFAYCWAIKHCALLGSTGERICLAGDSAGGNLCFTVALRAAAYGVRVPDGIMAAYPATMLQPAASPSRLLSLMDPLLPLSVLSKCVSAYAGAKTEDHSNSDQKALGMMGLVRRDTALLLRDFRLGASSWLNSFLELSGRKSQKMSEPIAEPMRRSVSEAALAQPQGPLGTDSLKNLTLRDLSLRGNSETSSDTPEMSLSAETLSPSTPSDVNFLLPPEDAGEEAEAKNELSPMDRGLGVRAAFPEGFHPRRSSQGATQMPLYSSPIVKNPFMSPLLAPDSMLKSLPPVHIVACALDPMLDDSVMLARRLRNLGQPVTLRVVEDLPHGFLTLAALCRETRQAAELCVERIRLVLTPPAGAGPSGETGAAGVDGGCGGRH
Summary of the method: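 Full-length human HSL carrying a C-terminal His6 tag was expressed in High 5 insect cells via baculovirus and purified on Ni-NTA. Compounds from 3-fold DMSO series were mixed with 1.5 mM DMPT substrate suspension in 100 mM MOPS pH 7.2 with 0.2 mg/ml fatty acid-free BSA, then enzyme (15 ug/ml) was added for 20 minutes at 37 °C. Released thiol was detected with DTNB plus SDS/Triton X-100 (15 minutes, room temperature) at 405 nm.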

IC50 [nM]	Compound
120	O=C(Nc1ccc(OC(F)(F)F)cc1)C1(O)CCN(S(=O)(=O)c2ccccc2Cl)CC1 [Example 10, 1-(2-Chloro-benzenesulfonyl)-4-hydroxy-piperidine-4-carboxylic acid (4-trifluoromethoxy-phenyl)-amide]
490	CN(C(=O)C1(O)CCN(S(=O)(=O)CC(C)(C)C)CC1)c1ccc(OC(F)(F)F)cc1 [Example 65, 1-(2,2-Dimethyl-propane-1-sulfonyl)-4-hydroxy-piperidine-4-carboxylic acid methyl-(4-trifluoromethoxy-phenyl)-amide]
520	CC(C)c1ccc(NC(=O)C2(N)CCN(C(=O)c3ccc(C(F)(F)F)nc3)CC2)cc1 [Example 130, 4-Amino-1-(6-trifluoromethyl-pyridine-3-carbonyl)-piperidine-4-carboxylic acid (4-isopropyl-phenyl)-amide]
150	O=C(Nc1ccc(OC(F)(F)F)cc1)C1(O)CCN(S(=O)(=O)c2ccccc2C(F)(F)F)CC1 [Example 64, 4-Hydroxy-1-(2-trifluoromethyl-benzenesulfonyl)-piperidine-4-carboxylic acid (4-trifluoromethoxy-phenyl)-amide]
80	CCc1ccc(NC(=O)C2(N)CCN(S(=O)(=O)c3ccc(OC)cc3)CC2)cc1 [Example 139, 4-Amino-1-(4-methoxy-benzenesulfonyl)-piperidine-4-carboxylic acid (4-ethyl-phenyl)-amide]
360	CC(C)c1ccc(NC(=O)C2(N)CCN(C(=O)c3ccc(Cl)cc3)CC2)cc1 [Example 125, 4-Amino-1-(4-chloro-benzoyl)-piperidine-4-carboxylic acid (4-isopropyl-phenyl)-amide]
290	Cc1ccccc1S(=O)(=O)N1CCC(O)(C(=O)Nc2ccc(OC(F)(F)F)cc2)CC1 [Example 59, 4-Hydroxy-1-(toluene-2-sulfonyl)-piperidine-4-carboxylic acid (4-trifluoromethoxy-phenyl)-amide]
640	CC(C)(C)c1ccc(NC(=O)C2(O)CCN(C(=O)c3cc(F)ccc3F)CC2)cc1 [Example 43, 1-(2,5-Difluoro-benzoyl)-4-hydroxy-piperidine-4-carboxylic acid (4-tert-butyl-phenyl)-amide]
210	CC(C)c1ccc(NC(=O)C2(N)CCN(C(=O)Nc3ccc(F)cc3)CC2)cc1 [Example 106, 4-Amino-piperidine-1,4-dicarboxylic acid 1-[(4-fluoro-phenyl)-amide]-4-[(4-isopropyl-phenyl)-amide]; hydrochloride]
140	C=Cc1ccc(NC(=O)C2(N)CCN(S(=O)(=O)c3ccccc3Cl)CC2)cc1 [Example 100, 4-Amino-1-(2-chloro-benzenesulfonyl)-piperidine-4-carboxylic acid (4-vinyl-phenyl)-amide]
230	CC(C)c1ccc(NC(=O)C2(N)CCN(S(=O)(=O)c3ccc(C(C)C)cc3)CC2)cc1 [Example 83, 4-Amino-1-(4-isopropyl-benzenesulfonyl)-piperidine-4-carboxylic acid (4-isopropyl-phenyl)-amide; hydrochloride]
110	NC1(C(=O)Nc2ccc(OCC(F)(F)F)cc2)CCN(S(=O)(=O)c2ccccc2Cl)CC1 [Example 105, 4-Amino-1-(2-chloro-benzenesulfonyl)-piperidine-4-carboxylic acid [4-(2,2,2-trifluoro-ethoxy)-phenyl]-amide]
90	CN(C(=O)C1(O)CCN(S(=O)(=O)c2ccccc2F)CC1)c1ccc(OC(F)(F)F)cc1 [Example 70, 1-(2-Fluoro-benzenesulfonyl)-4-hydroxy-piperidine-4-carboxylic acid methyl-(4-trifluoromethoxy-phenyl)-amide]
790	O=C(CC1CCCC1)N1CCC(O)(C(=O)Nc2ccc(OC(F)(F)F)cc2)CC1 [Example 53, 1-(2-Cyclopentyl-acetyl)-4-hydroxy-piperidine-4-carboxylic acid (4-trifluoromethoxy-phenyl)-amide]
660	CC(C)CC(=O)N1CCC(N)(C(=O)Nc2ccc(C(C)C)cc2)CC1 [Example 128, 4-Amino-1-(3-methyl-butyryl)-piperidine-4-carboxylic acid (4-isopropyl-phenyl)-amide]
190	CN(C(=O)C1(O)CCN(Cc2ccccc2F)CC1)c1ccc(OC(F)(F)F)cc1 [Example 67, 1-(2-Fluoro-benzyl)-4-hydroxy-piperidine-4-carboxylic acid methyl-(4-trifluoromethoxy-phenyl)-amide]
210	CC(C)c1ccc(NC(=O)C2(N)CCN(Cc3ccccc3C(F)(F)F)CC2)cc1 [Example 114, 4-Amino-1-(2-trifluoromethyl-benzyl)-piperidine-4-carboxylic acid (4-isopropyl-phenyl)-amide; hydrochloride]
710	NC1(C(=O)Nc2cccc(C(F)(F)F)c2)CCN(S(=O)(=O)c2ccccc2Cl)CC1 [Example 91, 4-Amino-1-(2-chloro-benzenesulfonyl)-piperidine-4-carboxylic acid (3-trifluoromethyl-phenyl)-amide]
